The results in this text go back to patent US8691856B2 (Eli Lilly and Company, priority 2005, dated 2014).

The target in the experiment is cloned human glucagon receptor (Homo sapiens (Human), UniProt P47871). As to the kind of experiment: Glucagon Receptor (hGlucR) Binding Assay.
Sequence of cloned human glucagon receptor (P47871 26-477): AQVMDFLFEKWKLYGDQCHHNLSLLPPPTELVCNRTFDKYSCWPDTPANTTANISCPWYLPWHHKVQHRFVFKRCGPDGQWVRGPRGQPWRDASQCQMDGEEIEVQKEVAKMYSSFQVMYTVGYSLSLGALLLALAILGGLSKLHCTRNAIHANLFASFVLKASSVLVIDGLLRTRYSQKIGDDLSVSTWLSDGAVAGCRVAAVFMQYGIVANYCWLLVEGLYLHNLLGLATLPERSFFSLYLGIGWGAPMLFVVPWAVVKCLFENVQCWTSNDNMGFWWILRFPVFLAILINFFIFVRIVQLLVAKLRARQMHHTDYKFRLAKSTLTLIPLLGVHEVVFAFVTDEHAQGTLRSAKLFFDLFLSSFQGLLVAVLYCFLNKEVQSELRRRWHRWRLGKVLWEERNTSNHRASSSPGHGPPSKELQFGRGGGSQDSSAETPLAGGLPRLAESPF

Protocol: The hGlucuR cDNA is subcloned into the expression plasmid phD (Trans-activated expression of fully gamma-carboxylated recombinant human protein C, an antithrombotic factor. Grinnell, B. W., Berg, D. T., Walls, J. and Yan, S. B. Bio/Technology 5: 1189-1192 (1987)). This plasmid DNA is transfected into 293 HEK cells and selected with 200 μg/mL Hygromycin.
Crude plasma membranes are prepared using cells from suspension culture. The cells are lysed on ice in hypotonic buffer containing 25 mM Tris HCL, pH 7.5, 1 mM MgCl2, DNAse1, 20 u/mL, and Roche Complete Inhibitors-without EDTA. The cell suspension is homogenized with a glass dounce homogenizer using a Teflon pestle for 25 strokes. The homogenate is centrifuged at 4 degrees C. at 1800×g for 15 mins. The supernate is collected and the pellet is resuspended in hypotonic buffer and rehomogenized. The mixture is centrifuged at 1800×g for 15 mins. The second supernate is combined with the first supernate. The combined supernates are recentrifuged at 1800×g for 15 mins to clarify. The clarified supernate is transferred to high speed tubes and centrifuged at 25000×g for 30 minutes at 4 degrees C. […]
The binding buffer contains 25 mM Hepes, pH 7.4, 2.5 mM CaCl2, 1 mM MgCl2, 0.1% fatty acid free BSA, (ICN), 0.003% tween-20, and Roche Complete Inhibitors without EDTA. […] Plates are read with a MicroBeta after 14 hours of settling time at room temp. […]

With `Cc1cc(OC(CCC(C)(C)C)c2ccc(C(=O)Nc3nnn[nH]3)cc2)cc(C)c1-c1ccc(C(F)(F)F)cc1` (stereo not shown), the Ki – broadly, the dissociation constant of the complex between target and ligand, obtained from inhibition or displacement – is 93.3 nM.
